Assay results: patent US20190105367A1, “ANTIMICROBIAL 4-OXOQUINOLIZINES” (Emergent Product Development Gaithersburg Inc., priority 2011, published 2019)
Values after ≈ are worked out from the molar mass of the structure shown. Like-named read-outs stand apart in the source and are kept apart here.

What was measured:
E. cloacae 13047 = experiment: MIC, standard panel of Gram-positive and Gram-negative strains (Example 2); type: cell-based, Enterobacter cloacae
Cytotoxicity (Example 7) = type: cell-based; settings: human, HEPG2 V1 cells
Description: The 4-oxoquinolizine compounds of the invention preferably have a low cytotoxicity against human cells. […].
Cytotoxicity was determined for the instant 4-oxoquinolizine compounds which show low cytotoxicity. (see Table 17 following). […]

[1] = tested on: GN56 Acinetobacter baumannii levofloxacin resistant clinical isolate; experiment: Chequerboard synergy with polymyxin B, FICI (Example 6); type: cell-based
Excerpt: (§1) A chequerboard technique was used to identify possible synergistic or antagonistic interactions between the 4-oxoquinolizines compounds, levofloxacin and polymyxin B. Levofloxacin was included as a control. […] Final dilutions were made in Mueller-Hinton broth, the specific test medium used for MIC determinations according to CLSI guidelines (CLSI. Methods for Dilution Antimicrobial Susceptibility Tests for Bacteria That Grow Aerobically; Approved Standard-Eighth Edition (2009). CLSI Document M07-A8. CLSI, Wayne, Pa. 19087-1898, USA.). The test medium used was a cation-adjusted Mueller-Hinton Broth II (Becton Dickinson UK Ltd., Oxford Science Park, Oxford, UK, OX4 4DQ).
(§2) The compounds 2, 33 and 35, as well as levofloxacin were tested in combination with polymyxin B on the following isolates: GN31 Acinetobacter baumannii—antibiotic susceptible clinical isolate, GN52 Acinetobacter baumannii—levofloxacin resistant clinical isolate, GN56 Acinetobacter baumannii—levofloxacin resistant clinical isolate, GN48 Klebsiella pneumoniae—NCTC 13443—NDM-1-metallo-β-lactamase and GN10 Pseudomonas aeruginosa—ATCC 27853—antibiotic susceptible reference isolate. All isolates are from the collection maintained at Quotient Bioresearch Ltd., Cambridge, UK.
(§3) The MIC values for the compounds and polymyxin B and levofloxacin were determined by broth microdilution following CLSI guidelines, and the MICs of agents in combination were determined as described by Pillai et. al (Pillai S K, Moellering R C Jr, Eliopoulis G M; Antimicrobial Combinations in Antibiotics in Laboratory Medicine 5th Edition (V. Lorian Ed) (2005) p 365-440). Initial MIC results were used to determine the microtiter plate patterns for the chequerboards. A suitable doubling dilution concentration range was selected such that the combination antibiotic range was at least two concentrations above and four concentrations below the MIC for each isolate. A fixed range of 0.008 to 8 mg/L was tested for polymyxin B except in the case of A. baumannii GN31 where a range of 0.004 to 4 mg/L was tested when in combination with the compounds 2, 33 and 35 as well as levofloxacin.
(§4) From the raw data, fractional inhibitory concentration indices (FICI) were determined for the compounds of the invention and levofloxacin together with polymyxin B for each isolate as follows:
(§5) FICX=concentration of the combination antibiotic in a particular row MIC of the combination drug alone
(§6) FICY=MIC of polymyxin B in combination[…]MIC of the polymyxin B alone
(§7) Additionally isobolograms were created to represent the same data visually. Here, the MIC of polymyxin B was plotted against every concentration of the combination antibiotic up to the MIC.

[2] = tested on: GN48 Klebsiella pneumoniae NCTC 13443 NDM-1-β-lactamase producing isolate; experiment: as above; type: cell-based
Excerpt: as §1, §2, §3, §4, §5, §6, §7

[3] = tested on: GN52 Acinetobacter baumannii levofloxacin resistant clinical isolate; experiment: as above; type: cell-based
Excerpt: as §1, §2, §3, §4, §5, §6, §7

[4] = tested on: GN31 Acinetobacter baumannii antibiotic susceptible isolate; experiment: as above; type: cell-based
Excerpt: as §1, §2, §3, §4, §5, §6, §7

E. faecium 19434 = experiment: MIC, standard panel of Gram-positive and Gram-negative strains (Example 2); type: cell-based; settings: Enterococcus faecium
A. baumannii A401 [5] = experiment: Preliminary MBC without and with sub-inhibitory polymyxin B (Example 4); type: cell-based, Acinetobacter baumannii
A. baumannii A472 = experiment: MIC without and with sub-inhibitory polymyxin B (Example 4); type: cell-based, Acinetobacter baumannii; settings: for MIC without PB/MIC + PB: ratio
S. aureus 25923 HS = experiment: MIC, standard panel of Gram-positive and Gram-negative strains (Example 2); type: cell-based; settings: Staphylococcus aureus, read-out: MIC S. aureus 25923 HS
S. aureus 101 = experiment: as above; type: cell-based; settings: Staphylococcus aureus
A. baumannii A387 = experiment: Preliminary MBC without and with sub-inhibitory polymyxin B (Example 4); type: cell-based, Acinetobacter baumannii
A. baumanii 19606 = experiment: MIC, standard panel of Gram-positive and Gram-negative strains (Example 2); type: cell-based; settings: Acinetobacter baumannii
A. baumannii A401 [6] = experiment: MIC without and with sub-inhibitory polymyxin B (Example 4); type: cell-based, Acinetobacter baumannii; settings: for MIC without PB/MIC + PB: ratio, PB 0.06 μg/ml
B. thailandensis = type: cell-based, Burkholderia thailandensis; settings: for Dilutions improvement shift on B. thailandensis MIC90 (between pH 7 and pH 5): pH 7 vs pH 5
[7] = tested on: strains of A. baumannii and one strain of Acinetobacter sp.; experiment: MIC without polymyxin B, panel of Acinetobacter strains (Example 4); type: cell-based
S. aureus 25923 = experiment: MIC, standard panel of Gram-positive and Gram-negative strains (Example 2); type: cell-based; settings: Staphylococcus aureus
S. epidermis 12228 = experiment: as above; type: cell-based, Staphylococcus epidermis; settings: Staphylococcus
E. faecalis 29212 = experiment: as above; type: cell-based, Enterococcus faecalis; settings: Enterococcus faecalis, 29212, read-out: MIC E. faecalis 29212
S. aureus SMITH = experiment: MIC, panel of quinolone-resistant strains (Example 2); type: cell-based; settings: Staphylococcus aureus, read-out: MIC S. aureus SMITH
[8] = in combination with polymyxin B
[9] = polymyxin B with the named antibiotic
[10] = Acinetobacter baumannii, A401, A baumannii A 401, +0.06 μg/ml PB, 2nd experiment, read-out: MBC
[11] = A. baumannii A472, 1st experiment
[12] = Acinetobacter baumannii, A472, read-out: MIC +[…] PB, A. baumannii A472, +[…] polymyxin B, 1st experiment
[13] = Acinetobacter baumannii, A387, A. baumannii A387, +0.06 μg/ml PB, 2nd experiment, read-out: MBC
[14] = Acinetobacter baumannii, A387, read-out: MBC +0.06 μg/ml PB, A. baumannii A387, +0.06 μg/ml polymyxin B, 1st experiment
[15] = A baumannii A 401, 1st experiment
[16] = Acinetobacter baumannii, A401, A baumannii A 401, +0.06 μg/ml PB, 2nd experiment, read-out: MIC
[17] = Acinetobacter baumannii, A401, read-out: MIC +0.06 μg/ml PB, A baumannii A 401, +0.06 μg/ml polymyxin B, 1st experiment
[18] = A baumannii A 401, +0.06 μg/ml PB, 2nd experiment
[19] = A baumannii A 401, +0.06 μg/ml polymyxin B, 1st experiment
[20] = A baumannii A 401, without PB, 2nd experiment
[21] = A baumannii A 401, without polymyxin B, 1st experiment

## Cc1c(-c2cc(F)c(N)cc2F)ccn2c(=O)c(C(=O)O)cc(C3CC3)c12 [Compound 2, 8-(4-amino-2,5-difluorophenyl)-1-cyclopropyl-9-methyl-4-oxo-4H-quinolizine-3-carboxylic acid]
E. cloacae 13047; Enterobacter cloacae, 13047; read-out: MIC E. cloacae 13047
  MIC: 0.25 mg/L (≈ 0.675 µM)
Cytotoxicity (Example 7)
  IC50: 250 µM
[1]
  Combination drug MIC alone: 16 mg/L
  FICx: 0.06
  FICy: 0.50
[1]; combination with polymyxin B
  FICI: 0.56
  Synergy: Partial synergy (partial synergy/addition (FICI 0.51 to 0.75))
[1]; [8]
  Combination drug concentration in combination: 1 mg/L
[1]; [9]
  Polymyxin B MIC in combination: 0.25 mg/L
[2]
  Combination drug MIC alone: 32 mg/L
  FICx: 0.13
  FICy: 0.50
[2]; combination with polymyxin B
  FICI: 0.63
  Synergy: Partial synergy (partial synergy/addition (FICI 0.51 to 0.75))
[2]; combination with polymyxin B, listed as compound 2
  Synergy: partial synergy
[2]; [8]
  Combination drug concentration in combination: 4 mg/L
[2]; [9]
  Polymyxin B MIC in combination: 0.25 mg/L
[3]
  Combination drug MIC alone: 4 mg/L
  FICx: 0.25
  FICy: 0.24
[3]; combination with polymyxin B
  FICI: 0.49
  Synergy: Synergy (Synergy (FICI <0.5))
[3]; [8]
  Combination drug concentration in combination: 1 mg/L
[3]; [9]
  Polymyxin B MIC in combination: 0.12 mg/L
[4]
  Combination drug MIC alone: 0.06 mg/L
  FICx: 0.25
  FICy: 0.24
[4]; combination with polymyxin B
  FICI: 0.49
  Synergy: Synergy (Synergy (FICI <0.5))
[4]; [8]
  Combination drug concentration in combination: 0.015 mg/L
[4]; [9]
  Polymyxin B MIC in combination: 0.06 mg/L
E. faecium 19434
  MIC: 0.5 mg/L (≈ 1.35 µM)
A. baumannii A401 [5]; [10]
  MBC: ≤ 0.03 mg/L
A. baumannii A401 [5]; Acinetobacter baumannii, A401, read-out: MBC +0.06 μg/ml PB, A baumannii A 401, +0.06 μg/ml polymyxin B, 1st experiment
  MBC: ≤ 0.03 mg/L
A. baumannii A472; [11]
  MIC without PB/MIC + PB: ≥128
A. baumannii A472; Acinetobacter baumannii, A472, A. baumannii A472, +[…] PB, 2nd experiment, read-out: MIC
  MIC: ≤ 0.03 mg/L
A. baumannii A472; [12]
  MIC: ≤ 0.03 mg/L
S. aureus 25923 HS
  MIC: 0.125 mg/L (≈ 0.338 µM)
S. aureus 101
  MIC: 0.125 mg/L (≈ 0.338 µM)
A. baumannii A387; [13]
  MBC: ≤ 0.03 mg/L
A. baumannii A387; [14]
  MBC: ≤ 0.03 mg/L
A. baumanii 19606
  MIC: 0.06 mg/L (≈ 0.162 µM)
A. baumannii A401 [6]; [15]
  MIC without PB/MIC + PB: ≥128
A. baumannii A401 [6]; [16]
  MIC: ≤ 0.03 mg/L
A. baumannii A401 [6]; [17]
  MIC: ≤ 0.03 mg/L

## 8-[(3S)-3-aminocyclopentyl]-1- cyclopropyl-7-fluoro-9-methyl- 4-oxo-quinolizine-3-carboxylic acid [Compound 10, reference compound]
A. baumannii A401 [5]; [18]
  MBC: 1 mg/L
A. baumannii A401 [5]; [19]
  MBC +0.06 μg/ml PB: 1.00 mg/L
A. baumannii A401 [5]; [20]
  MBC: 1 mg/L
A. baumannii A401 [5]; [21]
  MBC without PB: 1 mg/L
A. baumannii A472; A. baumannii A472, +[…] PB, 2nd experiment
  MIC: 0.5 mg/L
A. baumannii A472; A. baumannii A472, +[…] polymyxin B, 1st experiment
  MIC +[…] PB: 0.5 mg/L
A. baumannii A472; [11]
  MIC without PB/MIC + PB: 2
A. baumannii A472; A. baumannii A472, without PB, 2nd experiment
  MIC: 1 mg/L
A. baumannii A472; A. baumannii A472, without polymyxin B, 1st experiment
  MIC without PB: 1 mg/L
B. thailandensis
  MIC90 B. thailandensis: <0.048 mg/L
  Dilutions improvement shift on B. thailandensis MIC90 (between pH 7 and pH 5): Yes, 2x
[7]; 1st experiment, resistant strains, ATCC 19606, A329, A390 and A473 not taken
  MIC range without PB Oct. 1, 2006 n = 8: 0.5 to 8 mg/L
[7]; 2nd experiment, all strains except the ATCC strain
  MIC range without PB Oct. 14, 2008 n = 11: 0.5 to 2 mg/L
A. baumannii A387; A. baumannii A387, +0.06 μg/ml PB, 2nd experiment
  MBC: 0.5 mg/L
A. baumannii A387; A. baumannii A387, +0.06 μg/ml polymyxin B, 1st experiment
  MBC +0.06 μg/ml PB: 0.25 mg/L
A. baumannii A387; A. baumannii A387, without PB, 2nd experiment
  MBC: 0.5 mg/L
A. baumannii A387; A. baumannii A387, without polymyxin B, 1st experiment
  MBC without PB: 0.5 mg/L
A. baumannii A401 [6]; [18]
  MIC: 1 mg/L
A. baumannii A401 [6]; [19]
  MIC +0.06 μg/ml PB: 1.00 mg/L
A. baumannii A401 [6]; [15]
  MIC without PB/MIC + PB: 2
A. baumannii A401 [6]; [20]
  MIC: 1 mg/L
A. baumannii A401 [6]; [21]
  MIC without PB: 2 mg/L

## Cc1c(-c2ccc(CN)cc2)c(F)cn2c(=O)c(C(=O)O)cc(C3CC3)c12 [Compound 6, 8-(4-aminomethyl-phenyl)-1-cyclopropyl-7-fluoro-9-methyl-4-oxo-quinolizine-3-carboxylic acid]
E. cloacae 13047; Enterobacter cloacae, 13047, read-out: MIC E. cloacae 13047
  MIC: 0.125 mg/L (≈ 0.341 µM)
S. aureus 25923
  MIC: 0.03 mg/L (≈ 0.0819 µM)
S. epidermis 12228
  MIC: 0.03 mg/L (≈ 0.0819 µM)
E. faecalis 29212
  MIC: 0.125 mg/L (≈ 0.341 µM)
A. baumannii A401 [5]; [10]
  MBC: 32 mg/L (≈ 87.3 µM)
A. baumannii A472; [11]
  MIC without PB/MIC + PB: 16
A. baumannii A472; Acinetobacter baumannii, A472
  MIC: 1 mg/L (≈ 2.73 µM)
A. baumannii A472; [12]
  MIC: 0.5 mg/L (≈ 1.36 µM)
S. aureus SMITH
  MIC: 0.125 mg/L (≈ 0.341 µM)
S. aureus 25923 HS
  MIC: 0.25 mg/L (≈ 0.682 µM)
B. thailandensis
  Dilutions improvement shift on B. thailandensis MIC90 (between pH 7 and pH 5): No
A. baumannii A387; [13]
  MBC: 1 mg/L (≈ 2.73 µM)
A. baumannii A387; [14]
  MBC: 0.5 mg/L
A. baumanii 19606
  MIC: 0.5 mg/L (≈ 1.36 µM)
A. baumannii A401 [6]; [15]
  MIC without PB/MIC + PB: 4
A. baumannii A401 [6]; [16]
  MIC: 4 mg/L (≈ 10.9 µM)
A. baumannii A401 [6]; [17]
  MIC: 4 mg/L
